{"source": "ChEMBL document CHEMBL1128439", "about": "“Evaluation of cis- and trans-9- and 11-hydroxy-5,6,6a,7,8,12b-hexahydrobenzo[a]phenanthridines as structurally rigid, selective D1 dopamine receptor ligands” (J Med Chem, 1995)", "key": {"D(2) dopamine receptor [1]": {"target": "D(2) dopamine receptor (Rattus norvegicus, UniProt P61169)", "sequence (P61169 whole entry)": "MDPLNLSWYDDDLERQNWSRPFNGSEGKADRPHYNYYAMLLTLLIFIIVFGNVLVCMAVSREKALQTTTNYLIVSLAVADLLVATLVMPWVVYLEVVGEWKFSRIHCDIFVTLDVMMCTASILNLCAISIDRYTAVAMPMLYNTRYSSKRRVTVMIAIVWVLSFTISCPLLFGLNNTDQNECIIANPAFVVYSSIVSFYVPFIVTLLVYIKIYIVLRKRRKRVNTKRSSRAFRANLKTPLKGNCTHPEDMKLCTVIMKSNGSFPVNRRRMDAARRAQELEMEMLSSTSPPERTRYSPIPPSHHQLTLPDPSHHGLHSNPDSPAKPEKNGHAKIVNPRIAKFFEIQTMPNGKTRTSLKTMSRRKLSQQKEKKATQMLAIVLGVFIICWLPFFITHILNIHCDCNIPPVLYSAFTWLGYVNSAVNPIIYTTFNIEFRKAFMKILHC"}, "D(1A) dopamine receptor [2]": {"target": "D(1A) dopamine receptor (Rattus norvegicus, UniProt P18901)", "sequence (P18901 whole entry)": "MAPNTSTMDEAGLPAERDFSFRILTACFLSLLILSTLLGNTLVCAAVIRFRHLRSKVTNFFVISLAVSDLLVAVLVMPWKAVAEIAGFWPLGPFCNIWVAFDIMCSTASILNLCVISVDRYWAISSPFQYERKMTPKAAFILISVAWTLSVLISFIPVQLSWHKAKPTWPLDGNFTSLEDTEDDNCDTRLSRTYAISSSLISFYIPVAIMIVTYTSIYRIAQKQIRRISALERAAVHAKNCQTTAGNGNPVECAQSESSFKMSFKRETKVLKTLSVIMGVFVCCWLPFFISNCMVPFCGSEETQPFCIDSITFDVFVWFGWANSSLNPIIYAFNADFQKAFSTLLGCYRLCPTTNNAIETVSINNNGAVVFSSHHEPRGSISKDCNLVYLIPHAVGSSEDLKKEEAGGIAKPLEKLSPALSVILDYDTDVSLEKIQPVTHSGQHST"}, "Rattus norvegicus [3]": {"species": "Rattus norvegicus", "experiment": "Effect on cAMP synthesis in rat striatal membranes as increase above basal value at a concentration of 10 uM; NS= no synthesis detected", "format": "functional", "settings": "Striatum, Membrane"}, "Rattus norvegicus [4]": {"species": "Rattus norvegicus", "experiment": "Effect on cAMP synthesis in rat striatal membranes as increase above basal value at a concentration of 10 uM", "format": "functional", "settings": "Striatum, Membrane"}, "D(1A) dopamine receptor [5]": {"target": "D(1A) dopamine receptor (Homo sapiens, UniProt P21728)", "sequence (P21728 whole entry)": "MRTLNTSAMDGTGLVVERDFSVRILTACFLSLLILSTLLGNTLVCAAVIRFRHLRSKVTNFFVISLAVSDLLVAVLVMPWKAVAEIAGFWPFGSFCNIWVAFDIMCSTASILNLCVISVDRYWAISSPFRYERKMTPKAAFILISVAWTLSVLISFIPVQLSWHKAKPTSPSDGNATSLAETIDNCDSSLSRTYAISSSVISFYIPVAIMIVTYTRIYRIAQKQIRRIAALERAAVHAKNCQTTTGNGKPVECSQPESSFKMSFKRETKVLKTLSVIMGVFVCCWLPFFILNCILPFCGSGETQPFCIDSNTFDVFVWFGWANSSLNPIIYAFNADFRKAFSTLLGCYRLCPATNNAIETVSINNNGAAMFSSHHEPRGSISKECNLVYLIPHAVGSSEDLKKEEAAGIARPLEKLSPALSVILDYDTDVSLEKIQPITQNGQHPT", "experiment": "Affinity towards Dopamine receptor D1"}, "D(2) dopamine receptor [6]": {"target": "D(2) dopamine receptor (Homo sapiens, UniProt P14416)", "sequence (P14416 whole entry)": "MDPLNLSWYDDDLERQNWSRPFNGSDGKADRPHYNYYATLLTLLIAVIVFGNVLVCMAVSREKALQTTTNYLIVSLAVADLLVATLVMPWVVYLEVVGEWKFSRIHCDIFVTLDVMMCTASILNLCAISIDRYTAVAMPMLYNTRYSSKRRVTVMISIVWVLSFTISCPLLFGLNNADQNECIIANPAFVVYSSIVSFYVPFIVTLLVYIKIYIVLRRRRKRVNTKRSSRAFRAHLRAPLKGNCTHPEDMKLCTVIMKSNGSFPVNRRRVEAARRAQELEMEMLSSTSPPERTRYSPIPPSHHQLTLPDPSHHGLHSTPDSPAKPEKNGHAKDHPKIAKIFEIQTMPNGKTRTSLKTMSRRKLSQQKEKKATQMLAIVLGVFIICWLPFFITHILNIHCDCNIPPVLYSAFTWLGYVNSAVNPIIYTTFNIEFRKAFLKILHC", "experiment": "In vitro receptor binding affinity against Dopamine receptor D2"}, "Rattus norvegicus [7]": {"species": "Rattus norvegicus", "experiment": "Effect on cAMP synthesis in rat striatal membranes as increase above basal value at a concentration of 10 uM in the presence of 1 uM of SCH 23390.", "format": "functional", "settings": "Striatum, Membrane"}}, "note": "The source made the active and inactive calls. The rule behind the calls is not given here.", "data": [{"smiles": "Oc1cccc2c1CC[C@H]1NCc3ccccc3[C@H]21", "values": [{"measurement": "IC50", "setting": "D(2) dopamine receptor [1]", "value": 0.532, "unit": "µM"}, {"measurement": "IC50", "setting": "D(1A) dopamine receptor [2]", "value": 5.55, "unit": "µM"}]}, {"smiles": "Oc1ccc2c(c1)[C@@H]1c3ccccc3CN[C@@H]1CC2", "values": [{"measurement": "IC50", "setting": "D(2) dopamine receptor [1]", "value": 15.5, "unit": "µM"}, {"measurement": "Increase", "setting": "Rattus norvegicus [3]", "value": "inactive"}, {"measurement": "IC50", "setting": "D(1A) dopamine receptor [2]", "value": 16.7, "unit": "µM"}]}, {"smiles": "Oc1ccc2c(c1)[C@H]1c3ccccc3CN[C@@H]1CC2", "values": [{"measurement": "IC50", "setting": "D(2) dopamine receptor [1]", "value": 0.631, "unit": "µM"}, {"measurement": "Increase", "setting": "Rattus norvegicus [4]", "value": 15, "unit": "%"}, {"measurement": "IC50", "setting": "D(1A) dopamine receptor [2]", "value": 0.102, "unit": "µM"}]}, {"smiles": "Oc1cccc2c1CC[C@H]1NCc3ccccc3[C@@H]21", "values": [{"measurement": "IC50", "setting": "D(2) dopamine receptor [1]", "value": 2, "unit": "µM"}, {"measurement": "Increase", "setting": "Rattus norvegicus [3]", "value": "inactive"}, {"measurement": "IC50", "setting": "D(1A) dopamine receptor [2]", "value": 2.9, "unit": "µM"}]}, {"smiles": "CN1Cc2ccccc2[C@@H]2c3cc(O)c(Br)cc3CC[C@H]21", "values": [{"measurement": "IC50", "setting": "D(2) dopamine receptor [1]", "value": 3, "unit": "µM"}, {"measurement": "Increase", "setting": "Rattus norvegicus [3]", "value": "inactive"}, {"measurement": "IC50", "setting": "D(1A) dopamine receptor [2]", "value": 0.322, "unit": "µM"}]}, {"smiles": "CN1Cc2ccccc2[C@@H]2c3cc(O)ccc3CC[C@H]21", "values": [{"measurement": "IC50", "setting": "D(2) dopamine receptor [1]", "value": 0.359, "unit": "µM"}, {"measurement": "Increase", "setting": "Rattus norvegicus [4]", "value": 8, "unit": "%"}, {"measurement": "IC50", "setting": "D(1A) dopamine receptor [2]", "value": 0.115, "unit": "µM"}]}, {"smiles": "NC1CCc2cc(O)c(O)cc2[C@H]1c1ccccc1", "note": "(some centres not stated)", "values": [{"measurement": "IC50", "setting": "D(1A) dopamine receptor [5]", "value": "> 1", "unit": "µM"}, {"measurement": "IC50", "setting": "D(2) dopamine receptor [6]", "value": "> 1", "unit": "µM"}]}, {"smiles": "CCCN1Cc2ccccc2[C@@H]2c3cc(O)ccc3CC[C@H]21", "values": [{"measurement": "IC50", "setting": "D(2) dopamine receptor [1]", "value": 0.21, "unit": "µM"}, {"measurement": "IC50", "setting": "D(1A) dopamine receptor [2]", "value": 0.529, "unit": "µM"}]}, {"smiles": "CN1Cc2ccccc2[C@@H]2c3ccc(O)c(O)c3CC[C@H]21", "values": [{"measurement": "IC50", "setting": "D(2) dopamine receptor [1]", "value": 0.121, "unit": "µM"}, {"measurement": "Increase", "setting": "Rattus norvegicus [3]", "value": "inactive"}, {"measurement": "IC50", "setting": "D(1A) dopamine receptor [2]", "value": 0.955, "unit": "µM"}]}, {"smiles": "Oc1cc2c(cc1O)[C@H]1c3ccccc3CN[C@@H]1CC2", "values": [{"measurement": "Increase", "setting": "Rattus norvegicus [4]", "value": 103, "unit": "%"}, {"measurement": "Increase", "setting": "Rattus norvegicus [7]", "value": 1, "unit": "%"}]}, {"smiles": "NCCc1ccc(O)c(O)c1", "values": [{"measurement": "Increase", "setting": "Rattus norvegicus [4]", "value": 100, "unit": "%"}]}]}
